From patent US7985740B2, “Purine derivatives as agonists of the adenosine A2A receptor” (Glaxo Group Limited, priority 2005, dated 2011)

Assays:
[1] = target: T1, Human Serum Albumin (HSA) (Homo sapiens, UniProt P02768); experiment: Human serum albumin (HSA) binding, immobilised HSA HPLC column; format: in vitro ADME; conditions: for % HSA measured / logK measured: HSA column; for logK measured: derived from the calibration curve; for logtR: logarithm of typical retention time on the HSA column; for tR: typical retention time on the HSA column
T1 construct: purchased Chromtech (Cheshire, UK)
Method: Instrument: Agilent HP1100 HPLC instruments were used throughout.
HPLC columns: Chromtech Immobilised HSA HPLC column 50×3 mm was purchased from Chromtech (Cheshire, UK).
Mobile phase and detection: The mobile phase A was 50 mM pH 7.4 ammonium acetate solution, while mobile phase B was 2-Propanol (HPLC grade, Runcorn, UK). The mobile phase flow rate was 1.8 ml/min. The column temperature was kept at 30° C. The gradient profile and run time were the same with each column, the linear gradient from 0 to 30% 2-propanol was applied from 0 to 3 minutes. From 3 to 5 minutes, the mobile phase composition was constant 30% 2-propanol and 70% 50-mM ammonium acetate. From 5 min to 5.2 min the mobile phase composition was change to 100% ammonium acetate buffer only and remained the same until the end of the run. Each separation was stopped after 6 minutes. The column temperature was kept at 30° C.
Detection: Chromatograms were recorded at 230 and 254 nm by a diode array UV absorption detector at room temperature.

[2] = linear conversion of literature % PPB; cited from earlier work
neutrophilia = experiment: Inhibition of LPS-induced lung neutrophilia in rats, intratracheal dosing; format: in vivo; conditions: rat, retested at 30 ug/kg, similar method
Method: Rats are lightly anaesthetized (isofluorane in oxygen) and vehicle or test substance administered intratracheally using a cannula placed trans-orally (200 μl). Following intratracheal administration, rats are returned to their cages and allowed free access to both food and water. Thirty min later, rats are placed in a perspex box and exposed to aerosolized lipopolysaccharide (LPS) (0.15 mg/ml, serotype 0127:B8) for 15 min (Devilbiss nebuliser) at a flow rate of 15 ml/min. Animals are killed 4 h later with pentobarbital (250 mg/kg i.p.). The lungs are lavaged using 3 aliquots (5 ml) of phosphate-buffered saline (Sigma catalogue no. P3813, pH 7.4) containing heparin (10 units/ml); recovered cells are pooled (pooled volume of recovered fluid will be recorded) and centrifuged (1300 rpm for 7 min). The supernatant is removed by aspiration and the cell pellet resuspended in 1 ml phosphate-buffered saline. Total cells are counted (Sysmex Microcell Counter F-500, TOA Medical Electronics Ltd., Japan). Smears are made by diluting recovered fluid (to approximately 10^6 cells/ml) and spinning an aliquot (100 μl) in a centrifuge (Cytospin, Shandon, UK). […] A total of 300 cells per smear are counted by light microscopy under oil immersion (×1000).

[3] = target: T2, human adenosine A3 receptor (Homo sapiens, UniProt P0DMS8); experiment: Agonist activity at human adenosine A3 receptor, CHO cells with cAMP response element SPAP reporter; format: cell-based; conditions: forskolin enhanced cAMP
T2 construct: expressed in transfected cells
T2 sequence (P0DMS8 1-318): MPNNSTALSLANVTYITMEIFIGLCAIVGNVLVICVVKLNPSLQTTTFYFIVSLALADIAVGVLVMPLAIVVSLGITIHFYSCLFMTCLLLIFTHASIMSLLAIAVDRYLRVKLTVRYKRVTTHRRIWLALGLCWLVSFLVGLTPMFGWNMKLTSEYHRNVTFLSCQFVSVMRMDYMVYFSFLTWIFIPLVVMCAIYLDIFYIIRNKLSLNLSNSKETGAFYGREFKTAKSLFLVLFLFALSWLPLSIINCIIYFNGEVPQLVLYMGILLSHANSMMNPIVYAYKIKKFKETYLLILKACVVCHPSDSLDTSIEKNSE
Method: The adenosine A3 agonist potency of compounds are determined using Chinese Hamster ovary cells stably expressing the human adenosine A3 receptor and the cAMP response element SPAP (secreted placental alkaline phosphatase). Increasing the level of cAMP in theses cell causes an increase in the transcription of the SPAP reporter gene, which can be quantified by addition of a colour substrate to measure a coloured product. The adenosine A3 receptor is Gi linked so levels cAMP have to be enhanced by forskolin in these cells. Activation of the adenosine A3 receptor is determined by the reduction of forskolin enhanced cAMP, which is measured as a decrease in the coloured product. The Adenosine A3 activity of the test compounds is expressed as a ratio to that of the non-selective adenosine receptor agonist, N-ethyl carboxamide adenosine (NECA).

T1 sequence (P02768 25-609): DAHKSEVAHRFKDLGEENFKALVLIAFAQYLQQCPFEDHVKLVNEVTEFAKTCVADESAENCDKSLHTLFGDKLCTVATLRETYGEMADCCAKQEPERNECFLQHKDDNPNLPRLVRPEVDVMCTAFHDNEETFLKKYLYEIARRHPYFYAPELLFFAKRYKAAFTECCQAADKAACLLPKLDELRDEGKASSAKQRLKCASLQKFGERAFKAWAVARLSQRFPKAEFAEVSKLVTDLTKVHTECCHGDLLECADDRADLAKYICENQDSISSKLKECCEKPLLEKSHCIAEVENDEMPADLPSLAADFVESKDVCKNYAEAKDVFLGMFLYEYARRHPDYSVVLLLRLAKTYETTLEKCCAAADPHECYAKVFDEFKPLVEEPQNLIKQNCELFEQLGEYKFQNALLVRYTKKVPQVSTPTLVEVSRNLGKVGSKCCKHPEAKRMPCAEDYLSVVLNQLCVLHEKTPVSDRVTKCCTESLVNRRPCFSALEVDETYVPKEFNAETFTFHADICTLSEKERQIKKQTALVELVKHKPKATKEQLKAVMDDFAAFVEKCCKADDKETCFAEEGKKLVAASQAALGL

SMILES: O=C1CN=C(c2ccccn2)c2cc(Br)ccc2N1 [Bromazepam]
- % HSA measured ([1]; pH 7.4): 74.7%
- logK measured [1]: 0.45
- logtR [1]: 0.06
- tR [1]: 1.16
- lit logK [2]: 0.17

SMILES: CCCC1O[C@@H]2C[C@H]3[C@@H]4CCC5=CC(=O)C=C[C@]5(C)[C@H]4[C@@H](O)C[C@]3(C)[C@]2(C(=O)CO)O1 (stereo partly drawn) [Budesonide]
- % HSA measured ([1]; pH 7.4): 85.6%
- logK measured [1]: 0.75
- logtR [1]: 0.20
- tR [1]: 1.6
- lit logK [2]: 0.83

SMILES: NC(=O)N1c2ccccc2C=Cc2ccccc21 [Carbamazepine]
- % HSA measured ([1]; pH 7.4): 80.5%
- logK measured [1]: 0.59
- logtR [1]: 0.13
- tR [1]: 1.35
- lit logK [2]: 0.46

SMILES: O=C(O)Cc1ccccc1Nc1c(Cl)cccc1Cl [Diclofenac]
- lit logK [2]: 1.92

SMILES: CCn1nnc([C@H]2O[C@@H](n3cnc4c(N[C@H]5CC[C@H](Nc6nc(NCCCCN7CCCC7)nc7[nH]cnc67)CC5)nc(NCCCCN5CCCC5)nc43)[C@H](O)[C@@H]2O)n1 [Example 4, (2R,3S,4R,5R)-2-(2-ethyl-2H-tetrazol-5-yl)-5-[2-{[4-(1-pyrrolidinyl)butyl]amino}-6-({trans-4-[(2-{[4-(1-pyrrolidinyl)butyl]amino}-1H-purin-6-yl)amino]cyclohexyl}amino)-9H-purin-9-yl]tetrahydro-3,4-furandiol, triformate]
- inhibition of neutrophilia (neutrophilia): > 50%

SMILES: CCn1nnc(C2OC(n3cnc4c(NC5CCC(Nc6ccnc(NCCc7nc[nH]c7C)n6)CC5)nc(NCCc5nc[nH]c5C)nc43)C(O)C2O)n1.O=CO.O=CO [Example 8, (2R,3S,4R,5R)-2-(2-ethyl-2H-tetrazol-5-yl)-5-[2-{[2-(5-methyl-1H-imidazol-4-yl)ethyl]amino}-6-({trans-4-[(2-{[2-(5-methyl-1H-imidazol-4-yl)ethyl]amino}-4-pyrimidinyl)amino]cyclohexyl}-amino)-9H-purin-9-yl]tetrahydro-3,4-furandiol, diformate]
- HSA binding ([1]; pH 7.4): greater than 90%
- Adenosine A3 agonist activity [3]: functionally inactive over the concentration range of the assay

SMILES: CCn1nnc([C@H]2O[C@@H](n3cnc4c(N[C@H]5CC[C@H](Nc6ccnc(N[C@H]7CC[C@H](N)CC7)n6)CC5)nc(N[C@H]5CC[C@H](N)CC5)nc43)[C@@H](O)[C@H]2O)n1.O=CO.O=CO.O=CO [Example 10, (2R,3S,4R,5R)-2-(2-[(trans-4-aminocyclohexyl)amino]-6-{[trans-4-({2-[(trans-4-aminocyclohexyl)amino]-4-pyrimidinyl}amino)cyclohexyl]-amino}-9H-purin-9-yl)-5-(2-ethyl-2H-tetrazol-5-yl)tetrahydro-3,4-furandiol, triformate]
- Adenosine A3 agonist activity [3]: functionally inactive over the concentration range of the assay

SMILES: COC(=O)C1=C(C)NC(C)=C(C(=O)OCCN(C)Cc2ccccc2)C1c1cccc([N+](=O)[O-])c1 (stereo not drawn) [Nicardipine]
- % HSA measured ([1]; pH 7.4): 95.0%
- logK measured [1]: 1.22
- logtR [1]: 0.43
- tR [1]: 2.7

SMILES: CNC(=C[N+](=O)[O-])NCCSCc1csc(CN(C)C)n1 [Nizatidine]
- % HSA measured ([1]; pH 7.4): 24.6%
- logK measured [1]: −0.49
- tR [1]: 0.40
- lit logK [2]: −0.28

SMILES: CN1C(C(=O)Nc2ccccn2)=C(O)c2ccccc2S1(=O)=O [Piroxicam]
- % HSA measured ([1]; pH 7.4): 96.6%
- logK measured [1]: 1.34
- logtR [1]: 0.49
- tR [1]: 3.1
- lit logK [2]: 1.16
